Entries after “also recorded” stand apart in the source; their conditions may differ. Like-named read-outs stand apart in the source and are kept apart here.
Assay: Viscosity / flow property test (flow out of a vial, be swirled, direct drinking)
Assay type: physicochemical
Description: Properties of provided compounds and compositions can be readily tested, including using a number of methods widely known and practiced in the art, in accordance with the present disclosure. For example, viscosity and/or taste of provided compounds can be readily tested. In some embodiments, viscosity was assessed by testing whether a provided compound could readily flow out of a vial or be swirled. In some embodiments, viscosity was assessed by testing whether a provided compound could be administered by direct drinking by a subject. In some embodiments, taste was assessed by testing whether a provided compound could be administered by direct drinking by a subject.

Structure (SMILES)	flow property for formulation	viscosity compared with glycerol (at room temperature)	flow property for formulation (listed as 1-29)	viscosity compared with glycerol (temperature not stated)
CCCC(=O)OCC(COC(=O)CCC(=O)OCC(COC(=O)CCC)OC(=O)CCC)OC(=O)CCC (stereo not shown) [Compound I-29, succinate diglycerol tetra-butyric acid]	surprisingly good	lower viscosity than glycerol	good flow property for formulation	lower viscosity than glycerol
CCCCCCCC(=O)OCC(COC(=O)CCC(=O)OCC(COC(=O)CCCCCCC)OC(=O)CCCCCCC)OC(=O)CCCCCCC (stereo not shown) [Compound I-30, bis (2,3-bis(octanoyloxy)propyl) succinate]	surprisingly good; also recorded: good flow property for formulation	lower viscosity than glycerol	–	lower viscosity than glycerol
